According to patent publication US8900549B2, “Compositions and methods for delivering a substance to a biological target” (The General Hospital Corporation, priority 2008, dated 2014):

Assays:
[1] = test system: trans-cyclooctene bound to antibody; test: Kinetic measurements of tetrazine cycloaddition to surface-absorbed trans-cyclooctene modified antibody; assay type: physicochemical; conditions: PBS at 37° C.; 375, 750 and 1000 nM tetrazine; slope of pseudo first order rate constants versus concentration
Procedure: trans-cyclooctene modified antibody was physically absorbed onto polystyrene by immersing the surfaces in a 0.1 mg/mL solution of antibody in PBS for 3 hours. After numerous washes with PBS, the surface was exposed to 750 nM tetrazine VT680 in PBS at 37° C. After 5 minutes, the tetrazine solution was removed and the surface washed 3 times with PBS. The fluorescence due to the VT680 dye was measured on a fluorescence plate reader (Tecan Safire 2) and corrected for background fluorescence. The surface was again exposed to the tetrazine solution and the entire process repeated at 10, 15, 30, and 60 minutes. The fluorescence measurements were plotted versus time, fitted to a first order exponential growth curve and the pseudo first order rate constant determined The entire experiment was repeated using two different concentrations of tetrazine (375 nM and 1000 nM) and the pseudo first order rate constants from all three experiments were plotted versus concentration, fitted to a straight line; the slope of the line was 6000±200 M−1sec−1 and was reported at the second order rate constant for the reaction between tetrazine VT680 and trans-cyclooctene bound to antibody.

PtK2 rat kidney cells = test: Live cell labeling and confocal imaging of trans-cyclooctene taxol with tetrazine probes; assay type: cell-based, rat kangaroo; conditions: for staining of intracellular structures by confocal microscopy: 1 μM trans-cyclooctene taxol 1 hour 37° C., wash, then 1 μM tetrazine probe 20 minutes room temperature
Procedure: For live cell studies, PtK2 […] cells were incubated in cell media containing 1 μM trans-cyclooctene taxol for 1 hour at 37° C. After washing with media three times, the cells were exposed to media containing 1 μM tetrazine-BODIPY FL for 20 minutes at room temperature. The cells were then washed and imaged on a confocal microscope. […] Taxol® is known to bind the microtubular networks of cells and there have been several reports of fluorescent taxol derivatives that can be used to image microtubular networks (Evangelio et al., 1998, Cell Motil Cytoskeleton, 39, 73-90; Guy et al., 1996, Chem Biol, 3, 1021-31; Souto et al., 1995, Angew. Chem. Int. Ed., 34, 2710-2712). In addition to tubular structures, the perinuclear region was stained. This staining is due to nonspecific uptake of the taxol analog by intracellular membranes such as the endoplasmic reticulum and Golgi.

EGFR on A549 cells = test: Pretargeted live cell labeling with trans-cyclooctene cetuximab and tetrazine-VT680, confocal microscopy; assay type: cell-based, human
Procedure: The human lung adenocarcinoma epithelial cell line A549 was selected for all experiments due to its mid-level over-expression of EGFR. The cell line was maintained in a standard ATCC formulated F-12K media supplemented with 10% fetal bovine serum and 5% penicillin/streptomycin.
Cells were grown on break away glass chamber slides and washed six times after administering either imaging agent. A multichannel upright laser-scanning confocal microscope (FV1000; Olympus) was used to image live cells with a 60× water immersion objective lens. Image collection and fluorophore excitations with lasers at 488 nm (EGFP), 543 nm (AF555), and 633 nm (VT680) were done serially to avoid cross talk between channels. Data were acquired with Fluoview software (version 4.3; Olympus) and image stacks were processed and analyzed with ImageJ software (version 1.41, Bethesda Md.).
Direct labeling of the antibodies with AF555 was monitored in the red channel.

[2] = test system: Her2/neu growth factor receptors on SKBR-3 human mammary carcinoma cells; test: Live cell labeling with norbornene-modified trastuzumab and tetrazine-VT680, fluorescence microscopy; assay type: cell-based
Excerpt: Norbornene carboxylic acid ((1S,2S,4S)-bicyclo[2.2.1]hept-5-en-2-yl acetic acid) was stirred for three hours with 1.1 equivalents of disuccinimidyl carbonate in acetontrile using 1 equivalent of pyridine as base. After reaction, solvent and base were removed by rotary evaporation and the crude norbornene succinimidyl ester with N-hydroxysuccinimide side product was recovered. Commercially purchased humanized anti-HER2/neu antibody trastuzumab (Genentech, San Francisco, Calif.) in 0.1M sodium bicarbonate buffer (pH 8.2) was incubated for three hours at room temperature with a 5 molar excess of 5-(and-6)-carboxytetramethylrhodamine, succinimidyl ester (Invitrogen) and a 30 molar excess of crude norbornene succinimidyl ester. The antibody was then isolated and washed by centrifuge purification and stored in PBS buffer. Control antibody was modified in an identical manner but excluding the norbornene NHS.
SKBR-3 human mammary carcinoma cell lines were maintained in complete McCoy's medium. Cells were incubated at 37° C. with 200 nM modified trastuzumab for 30 minutes and then washed twice with 10% fetal bovine serum (FBS) in Hanks balanced salt solution (HBSS). Tetrazine labeling was performed by incubating the cells for 30 minutes at 37° C. in 10% FBS/HBSS containing 50 μM of tetrazine-VT680. Cells were then washed twice with 10% FBS/HBSS and imaged with by fluorescence microscopy.

tubulin = test: Tubulin polymerization assay in the absence of GTP (optical density at 350 nm); assay type: biochemical; conditions: tubulin monomer, versus DMSO control
Excerpt: To test the activity of the trans-cyclooctene taxol analog, we tested for the well known ability of Taxol® to polymerize tubulin in the absence of GTP (Shelanski et al., 1973, Proc Natl Acad Sci USA, 70, 765-8; Schiff and Horwitz, 1981, Biochemistry, 20, 3247-52). Optical density measurements at 350 nm (FIG. 6B) were used to determine the degree of tubulin polymerization after exposure of tubulin monomer to Taxol®, trans-cyclooctene taxol, and a DMSO control. […] Taxol trans-cyclooctene induced tubule bundles could be visualized by subsequent staining with tetrazine fluorophore probes such as tetrazine-BODIPY FL yielding brightly fluorescent tubule structures that could be imaged by fluorescent microscopy (FIG. 6c).

In the case of “3-(p-Benzylamino)-tetrazine-VT680 Conjugate”, the “second order rate constant” value [1] is reported as 6000 ± 200 M⁻¹ s⁻¹, the “staining of intracellular structures by confocal microscopy” value (“staining of intracellular structures” for short) (PtK2 rat kidney cells) is reported as “showed intracellular structures reflecting microtubule networks” and the “staining of intracellular structures” value (PtK2 rat kidney cells; listed as sulfonated Vivo-Tag 680 tetrazine) is reported as “very little staining and an absence of tubular structures”. The “colocalization of NIR (VT680) signal with AF555-labeled antibody” value (EGFR on A549 cells; A549 cells pretargeted with AF555-labeled trans-cyclooctene cetuximab, then tetrazine-VT680) was “excellent colocalization of the AF555 and VT680 signals with little background fluorescence” and the “NIR fluorescence in control experiments” value (EGFR on A549 cells; unlabeled cetuximab and tetrazine-VT680, or trans-cyclooctene-cetuximab and unlabeled VT680) was “no NIR fluorescence”.

For “5-(4-(1,2,4,5-Tetrazin-3-yl)benzylamino)-5-oxopentanoic Acid [Example 3]”, the “labeling of cells in rhodamine and NIR fluorescence channels” value ([2]; 200 nM norbornene- and rhodamine-modified trastuzumab 30 minutes, then 50 μM tetrazine-VT680 30 minutes 37° C. in 10% FBS/HBSS) was “Significant labeling, which colocalizes” and the “NIR labeling with control antibody” value ([2]; control antibody containing rhodamine but not norbornene) was “no NIR labeling”.

In the case of `CC(=O)O[C@H]1C(=O)[C@@]2(C)[C@H]([C@H](OC(=O)c3ccccc3)[C@]3(O)C[C@H](OC(=O)[C@H](O)[C@@H](NC(=O)c4ccccc4)c4ccccc4)C(C)=C1C3(C)C)[C@]1(OC(C)=O)CO[C@@H]1C[C@@H]2O` [Taxol®, paclitaxel, reference compound], the “degree of tubulin polymerization (optical density at 350 nm)” value (tubulin) is reported as “induced polymerization”.

In the case of `Cc1cc(C)n2c1C=C1C=CC(CCC(=O)NCc3ccc(-c4nncnn4)cc3)=[N+]1[B-]2(F)F` [tetrazine-BODIPY FL], the “staining of intracellular structures” value (PtK2 rat kidney cells) is reported as “tubular structures were clearly stained” and the “fluorescent background in control experiments” value (PtK2 rat kidney cells; tetrazine-BODIPY FL alone or with unmodified taxol) is reported as “minimal fluorescent background”.

For `CC(=O)OC1C(=O)C2(C)C(OC(=O)CCNC(=O)OC3CCC=CCCC3)CC3OCC3(OC(C)=O)C2C(OC(=O)c2ccccc2)C2(O)CC(OC(=O)C(O)C(NC(=O)c3ccccc3)c3ccccc3)C(C)=C1C2(C)C` (stereo not drawn) [trans-cyclooctene taxol], the “degree of tubulin polymerization (optical density at 350 nm)” value (tubulin) was “induced polymerization” and the “staining of intracellular structures” value (PtK2 rat kidney cells) was “tubular structures were clearly stained”.
